Data on 23 compounds can be found in patent US20260035340A1, “INHIBITORS OF AKR1C3 AND METHODS OF USE” (BOARD OF REGENTS OF THE UNIVERSITY OF NEBRASKA, priority 2022, published 2026).

Where two headings read alike, the source gives them in different places.

Format in all cases: biochemical
One experiment addresses AKR1C3 (Homo sapiens (Human), UniProt P42330). Kind of experiment: AKR enzyme inhibition assay, NADP+ dependent oxidation of S-tetralol, AKR1C3. The following applies: for Selectivity 1C2:1C3: ratio of AKR1C2 to AKR1C3 IC50; for selectivity over AKR1C2: AKR1C3 over AKR1C2.
For another experiment, the target named is AKR1C4 (Homo sapiens (Human), UniProt P17516). Kind of experiment: AKR enzyme inhibition assay, AKR1C4. The following applies: Table 2; recombinant enzyme; read-out: IC50 ± SD AKR1C4.
Sequence of AKR1C4 (P17516 whole entry): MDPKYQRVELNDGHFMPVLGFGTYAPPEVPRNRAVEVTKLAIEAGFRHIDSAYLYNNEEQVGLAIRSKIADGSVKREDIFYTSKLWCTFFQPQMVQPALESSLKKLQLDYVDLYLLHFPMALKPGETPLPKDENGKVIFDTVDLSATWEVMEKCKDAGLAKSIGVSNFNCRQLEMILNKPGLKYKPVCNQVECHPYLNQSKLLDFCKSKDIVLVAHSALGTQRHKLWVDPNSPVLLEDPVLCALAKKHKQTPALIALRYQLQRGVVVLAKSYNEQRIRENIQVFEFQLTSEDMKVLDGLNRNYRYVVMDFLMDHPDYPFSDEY
The next experiment concerns the target AKR1C2 (Homo sapiens (Human), UniProt P52895). Kind of experiment: AKR enzyme inhibition assay, NADP+ dependent oxidation of S-tetralol, AKR1C2 counter-screen.
For the next experiment, the target named is AKR1C1 (Homo sapiens (Human), UniProt Q04828). Kind of experiment: AKR enzyme inhibition assay, NADP+ dependent oxidation of S-tetralol, AKR1C1. The following applies: Table 2; recombinant enzyme, S-tetralol at Km; read-out: IC50 ± SD AKR1C1.
Sequence of AKR1C1 (Q04828 whole entry): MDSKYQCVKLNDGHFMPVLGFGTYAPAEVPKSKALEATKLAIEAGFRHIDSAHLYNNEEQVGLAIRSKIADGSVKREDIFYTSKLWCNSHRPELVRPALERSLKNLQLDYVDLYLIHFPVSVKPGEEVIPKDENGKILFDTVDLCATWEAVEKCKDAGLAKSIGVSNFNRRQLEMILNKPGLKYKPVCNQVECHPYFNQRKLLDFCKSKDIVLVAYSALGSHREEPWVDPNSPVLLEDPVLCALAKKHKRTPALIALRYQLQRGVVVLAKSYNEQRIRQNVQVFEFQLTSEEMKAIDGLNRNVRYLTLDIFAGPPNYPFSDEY
Setting [1] is: Table 2, recombinant enzyme, S-tetralol at Km, read-out: IC50 ± SD AKR1C2.
[2] abbreviates: Table 2, recombinant enzyme, S-tetralol at Km, read-out: IC50 ± SD AKR1C3.
Setting [3] is: Table 3, compounds of formula (A4), read-out: IC50 AKR1C3.
The mark [4] stands for this setting: Table 4, compounds of formula (A3), read-out: IC50 AKR1C3.

Sequence of AKR1C3 (P42330 whole entry): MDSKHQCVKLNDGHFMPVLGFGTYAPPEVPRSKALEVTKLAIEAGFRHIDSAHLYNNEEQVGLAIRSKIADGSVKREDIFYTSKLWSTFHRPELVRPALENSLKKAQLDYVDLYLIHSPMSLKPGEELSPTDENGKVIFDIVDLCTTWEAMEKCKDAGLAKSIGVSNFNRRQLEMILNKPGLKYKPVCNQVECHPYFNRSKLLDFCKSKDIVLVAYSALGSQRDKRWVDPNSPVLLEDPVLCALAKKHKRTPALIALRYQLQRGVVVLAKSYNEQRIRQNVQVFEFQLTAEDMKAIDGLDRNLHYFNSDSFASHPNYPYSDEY
Sequence of AKR1C2 (P52895 whole entry): as the sequence (Q04828 whole entry) above, with T38V, R47H, L54V, C87S, V151M, R170H, Q172L counted along it
Experimental for AKR1C1: (§1) Assay of enzyme activity: The dehydrogenase activities of AKR1C1, AKR1C2, and AKR1C3 were determined by measuring the formation of NADH formation at 340 nm using Beckman DU640 spectrophotometer. […] After continuously monitoring for 5 min, the increase in UV absorption using different concentrations of enzyme were recorded to calculate the initial velocity and determine enzyme specific activity. IC50 value determination: The inhibitory potency for each compound was represented by IC50 value and measured as described before. […] The concentration of S-tetralol used in the assays for each AKR1C isoform was equal to the Km value for the respective enzyme so that IC50 values could be directly compared assuming a competitive pattern of inhibition. […] In this equation, “range” is the fitted uninhibited value minus the “background”, and “S” is a slope factor. “I” is the concentration of inhibitor. The equation assumes that y falls with increasing “I”.
Experimental for AKR1C2: (§2) Structure-Activity Relationship: The ability of compounds to inhibit AKR1C3 in the first instance were determined by measuring the NADP+ dependent oxidation of S-tetralol catalyzed by recombinant enzyme as described herein. […] Assay of enzyme activity: The dehydrogenase activities of AKR1C1, AKR1C2, and AKR1C3 were determined by measuring the formation of NADH formation at 340 nm using Beckman DU640 spectrophotometer. […] After continuously monitoring for 5 min, the increase in UV absorption using different concentrations of enzyme were recorded to calculate the initial velocity and determine enzyme specific activity. IC50 value determination: The inhibitory potency for each compound was represented by IC50 value and measured as described before. […] The concentration of S-tetralol used in the assays for each AKR1C isoform was equal to the Km value for the respective enzyme so that IC50 values could be directly compared assuming a competitive pattern of inhibition. […] In this equation, “range” is the fitted uninhibited value minus the “background”, and “S” is a slope factor. “I” is the concentration of inhibitor. The equation assumes that y falls with increasing “I”.
Experimental for AKR1C3: as §2
Experimental for AKR1C4: as §1

Turning to `COC(=O)/C=C/c1cc(Br)cc(C(=O)NCc2ccc(C)cc2)c1` [Compound 3], the IC50 (commonly the concentration that gives 50% inhibition) on AKR1C3 (read-out: IC50 AKR1C3) is 200 nM.
As to `CC(C)=CCOc1cc(/C=C/C(=O)O)cc(C(=O)NCc2ccc(C)cc2)c1` [Compound 10, (E)-3-(3-((4-Methylbenzyl)carbamoyl)-5-((3-methylbut-2-en-1-yl)oxy)phenyl)acrylic acid], the IC50 at AKR1C4 was 31000 ± 5000 nM; on AKR1C2 (setting [1]), 15000 ± 2400 nM; on AKR1C3 (setting [2]) it was 80 ± 10 nM; at AKR1C1, 52000 ± 7000 nM. In addition, the “Selectivity 1C2:1C3” value at AKR1C3 (Table 2) stood at 187.
On to `Cc1ccc(CNC(=O)c2cc(Br)cc(/C=C/C(=O)O)c2)cc1` [Compound 11, (E)-3-(3-Bromo-5-((4-methylbenzyl)carbamoyl)phenyl)acrylic acid], for which the IC50 at AKR1C4 was 40000 ± 1300 nM; at AKR1C2 (setting [1]) it was more than 100000 nM; at AKR1C3 (setting [2]) it was 300 ± 10 nM. Moreover, the “Selectivity 1C2:1C3” value on AKR1C3 (Table 2) was more than 333.
Take `Cc1ccc(CNC(=O)c2cc(Br)cc(/C=C/C(N)=O)c2)cc1` [Compound 12, (E)-3-(3-Amino-3-oxoprop-1-en-1-yl)-5-bromo-N-(4-methylbenzyl)benzamide]: the IC50 on AKR1C3 (setting [3]) came to 28000 ± 2900 nM.
For `Cc1ccc(CNC(=O)c2cc(/C=C/C(N)=O)cc(-c3ccc(Oc4ccccc4)cc3)c2)cc1` [Compound 13, (E)-5-(3-Amino-3-oxoprop-1-en-1-yl)-N-(4-methylbenzyl)-4′-phenoxy-[1,1′-biphenyl]-3-carboxamide], the IC50 at AKR1C3 (read-out: IC50 AKR1C3) worked out at 2700 nM.
For the compound `Cc1ccc(CNC(=O)c2cc(Br)cc(/C=C/C(=O)N(C)C)c2)cc1` [Compound 14, (E)-3-Bromo-5-(3-(dimethylamino)-3-oxoprop-1-en-1-yl)-N-(4-methylbenzyl)benzamide], the “increased activity over terminal primary amide 12” value at AKR1C3 (AKR1C3 inhibition) was more than 66 fold. The IC50 on AKR1C3 (read-out: IC50 AKR1C3) turned out to be 400 nM.
Consider `Cc1ccc(CNC(=O)c2cc(Br)cc(/C=C/C#N)c2)cc1` [Compound 15, (E)-3-Bromo-5-(2-cyanovinyl)-N-(4-methylbenzyl)benzamide], for which the IC50 at AKR1C3 (read-out: IC50 AKR1C3) worked out at 170 nM.
Turning to `Cc1ccc(CNC(=O)c2cc(/C=C/C#N)cc(-c3ccc(Oc4ccccc4)cc3)c2)cc1` [Compound 16a, (E)-5-(2-Cyanovinyl)-N-(4-methylbenzyl)-4′-phenoxy-[1,1′-biphenyl]-3-carboxamide], the IC50 was found to be 1400 ± 300 nM on AKR1C3 (setting [3]) and 1400 nM on AKR1C3 (read-out: IC50 AKR1C3).
The matching figures for `CC(C)=CCc1cc(/C=C/C#N)cc(C(=O)NCc2ccc(C)cc2)c1` [Compound 16b, (E)-3-(2-Cyanovinyl)-N-(4-methylbenzyl)-5-(3-methylbut-2-en-1-yl)benzamide]: 2700 ± 370 nM and 2700 nM.
In the case of `CC[C@@H](NC(=O)c1cc(/C=C/C(=O)O)cc(-c2ccc(C(C)C)cc2)c1)c1ccccc1` [Compound 20a, (R,E)-3-(4′-Isopropyl-5-((1-phenylpropyl)carbamoyl)-[1,1′-biphenyl]-3-yl)acrylic acid], the IC50 at AKR1C2 (Table 4, compounds of formula (A3), read-out: IC50 AKR1C2) was determined as 6000 ± 1400 nM; at AKR1C3 (setting [4]) it was 120 ± 14 nM. The “Selectivity 1C2:1C3” value at AKR1C3 (Table 4) is 51.
In the case of `CC[C@@H](NC(=O)c1cc(/C=C/C(=O)O)cc(-c2ccc(Oc3ccccc3)cc2)c1)c1ccccc1` [Compound 20b, (R,E)-3-(4′-Phenoxy-5-((1-phenylpropyl)carbamoyl)-[1,1′-biphenyl]-3-yl)acrylic acid], the IC50 on AKR1C3 (setting [4]) worked out at 260 ± 16.6 nM.
Take `Cc1ccc(CNC(=O)c2cc(C#CC3CC3)cc(/C=C/C(=O)O)c2)cc1` [Compound A1-bb, (E)-3-(3-(Cyclopropylethynyl)-5-((4-methylbenzyl)carbamoyl)phenyl)acrylic acid]: the IC50 on AKR1C2 (setting [1]) was 37000 ± 9600 nM; at AKR1C3 (setting [2]), 500 ± 40 nM. Also, the “selectivity over AKR1C2” value on AKR1C3 is reported as 74 fold.
As to `Cc1ccc(CNC(=O)c2cc(/C=C/C(=O)O)cc(-c3ccc(F)cc3F)c2)cc1` [Compound A1-g, (E)-3-(2′,4′-Difluoro-5-((4-methylbenzyl)carbamoyl)-[1,1′-biphenyl]-3-yl)acrylic acid], at AKR1C3 (read-out: IC50 AKR1C3), the IC50 was 130 nM.
For the compound `Cc1ccc(CNC(=O)c2cc(/C=C/C(=O)O)cc(-c3ccc(C(F)(F)F)cc3)c2)cc1` [Compound A1-h, (E)-3-(5-((4-Methylbenzyl)carbamoyl)-4′-(trifluoromethyl)-[1,1′-biphenyl]-3-yl)acrylic acid], the IC50 on AKR1C3 (setting [2]) was found to be 200 ± 20 nM.
`CCc1ccc(-c2cc(/C=C/C(=O)O)cc(C(=O)NCc3ccc(C)cc3)c2)cc1` [Compound A1-j, (E)-3-(4′-Ethyl-5-((4-methylbenzyl)carbamoyl)-[1,1′-biphenyl]-3-yl)acrylic acid]: the IC50 at AKR1C3 (setting [2]) came out at 190 ± 10 nM.
Regarding `Cc1ccc(CNC(=O)c2cc(/C=C/C(=O)O)cc(-c3ccc(C(C)C)cc3)c2)cc1` [Compound A1-k, (E)-3-(4′-Isopropyl-5-((4-methylbenzyl)carbamoyl)-[1,1′-biphenyl]-3-yl)acrylic acid], the IC50 on AKR1C3 (read-out: IC50 AKR1C3) turned out to be 190 nM.
Take `COc1ccc(-c2cc(/C=C/C(=O)O)cc(C(=O)NCc3ccc(C)cc3)c2)cc1` [Compound A1-l, (E)-3-(4′-Methoxy-5-((4-methylbenzyl)carbamoyl)-[1,1′-biphenyl]-3-yl)acrylic acid]: the 50% inhibitory concentration (IC50) at AKR1C3 (setting [2]) came to 170 ± 30 nM.
The same measure, in the same setting: with `Cc1ccc(CNC(=O)c2cc(/C=C/C(=O)O)cc(-c3ccc(C#N)cc3)c2)cc1` [Compound A1-m, (E)-3-(4′-Cyano-5-((4-methylbenzyl)carbamoyl)-[1,1′-biphenyl]-3-yl)acrylic acid] the figure was 170 ± 10 nM.
Regarding `Cc1ccc(CNC(=O)c2cc(/C=C/C(=O)O)cc(-c3ccc(Oc4ccccc4)cc3)c2)cc1` [Compound A1-n, (E)-3-(5-((4-Methylbenzyl)carbamoyl)-4′-phenoxy-[1,1′-biphenyl]-3-yl)acrylic acid], the IC50 at AKR1C2 (setting [1]) was 4800 ± 1200 nM; on AKR1C3 (setting [2]), 94 ± 10 nM. The “selectivity over AKR1C2” value at AKR1C3 worked out at 51 fold.
Take `Cc1ccc(CNC(=O)c2cc(/C=C/C(=O)O)cc(-c3ccc(-c4ccccc4)cc3)c2)cc1` [Compound A1-u, (E)-3-(5-((4-Methylbenzyl)carbamoyl)-[1,1′:4′,1″-terphenyl]-3-yl)acrylic acid]: the IC50 on AKR1C4 was 2400 ± 150 nM; at AKR1C2 (setting [1]), 29000 ± 4800 nM; on AKR1C3 (setting [2]), 50 ± 4 nM. In addition, at AKR1C3 (Table 2), the “Selectivity 1C2:1C3” value worked out at 580.
As for `Cc1ccc(CNC(=O)c2cc(C#Cc3ccccc3)cc(/C=C/C(=O)O)c2)cc1` [Compound A1-w, (E)-3-(3-((4-methylbenzyl)carbamoyl)-5-(phenylethynyl)phenyl)acrylic acid], the IC50 on AKR1C2 (setting [1]) is 11000 ± 3100 nM; on AKR1C3 (setting [2]), 180 ± 19 nM. Moreover, the “selectivity over AKR1C2” value at AKR1C3 was found to be 61 fold.
Turning to `Cc1ccc(CNC(=O)c2cc(/C=C/C(=O)O)cc(CC(C)c3ccccc3)c2)cc1` (stereo not drawn) [Compound A1-x, (E)-3-(3-((4-Methylbenzyl)carbamoyl)-5-(2-phenylpropyl)phenyl)acrylic acid], the IC50 amounted to 156000 ± 71000 nM on AKR1C2 (setting [1]) and 880 nM on AKR1C3 (read-out: IC50 AKR1C3). The “selectivity over AKR1C2” value at AKR1C3 is recorded as 177 fold.
For `Cc1ccc(CNC(=O)c2cc(/C=C/C(=O)O)cc(-c3ccc(CN4CCOCC4)c(F)c3)c2)cc1` [Compound A1-y, (E)-3-(3′-Fluoro-5-((4-methylbenzyl)carbamoyl)-4′-(morpholinomethyl)-[1,1′-biphenyl]-3-yl)acrylic acid], in that order: 5100 ± 600 nM, 330 nM and 16 fold.
